Measured values reported in patent US20260055113A1, “HETEROARYL COMPOUNDS FOR THE TREATMENT OF CANCER” (Hoffmann-La Roche Inc., priority 2022, published 2026).

Experiments:
CD73 [1] = target: T1, CD73 (Homo sapiens (Human), UniProt P21589); experiment: CD73 cellular assay (MDA-MB-231 cells, malachite readout); format: cell-based; settings: AMP substrate, 45 min, read-out: Cellular IC50 against CD73
Description: After incubating with compounds for 30 minutes, 40 μL of AMP working solution (200 μM AMP in assay buffer) was added into each well in the assay plate. The assay plate was then incubated in a 5% CO2 incubator (Thermo Fisher Scientific) at 37° C. for 45 min. After the reaction was completed, 50 μL of the supernatants was collected and transferred into a new 384 well plate. 10 μL of Malachite A was added to each well in the assay plate and incubated for 10 minutes. 10 μL of Malachite B was then added to each corresponding well of the plate and incubated for 30 minutes.
Target sequence in this assay (P21589 27-574): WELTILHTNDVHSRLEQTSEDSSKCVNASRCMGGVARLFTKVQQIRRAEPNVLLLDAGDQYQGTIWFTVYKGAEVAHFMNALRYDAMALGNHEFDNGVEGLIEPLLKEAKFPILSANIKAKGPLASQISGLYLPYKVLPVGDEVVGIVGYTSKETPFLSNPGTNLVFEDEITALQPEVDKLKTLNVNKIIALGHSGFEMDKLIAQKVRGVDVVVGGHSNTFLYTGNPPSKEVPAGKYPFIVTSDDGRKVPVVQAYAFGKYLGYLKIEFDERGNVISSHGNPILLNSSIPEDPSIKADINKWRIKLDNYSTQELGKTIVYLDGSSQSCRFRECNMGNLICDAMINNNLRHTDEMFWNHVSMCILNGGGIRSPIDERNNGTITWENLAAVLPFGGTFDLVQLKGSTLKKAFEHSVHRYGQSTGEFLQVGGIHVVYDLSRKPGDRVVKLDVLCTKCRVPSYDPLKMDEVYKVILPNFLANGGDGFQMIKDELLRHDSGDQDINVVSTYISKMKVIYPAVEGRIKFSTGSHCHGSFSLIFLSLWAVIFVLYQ

[2] = Human microsomal stability assay; format: in vitro ADME; settings: human liver microsomes 0.5 mg/mL, 1 μM test compound, 37° C., pH 7.4
Description: Human liver microsomes (Cat. NO.: 452117, Corning, USA) were preincubated with test compound for 10 minutes at 37° C. in 100 mM potassium phosphate buffer, pH 7.4. The reactions were initiated by adding NADPH regenerating system. The final incubation mixtures contained 1 μM test compound, 0.5 mg/mL liver microsomal protein, 1 mM MgCl2, 1 mM NADP, 1 unit/mL isocitric dehydrogenase and 6 mM isocitric acid in 100 mM potassium phosphate buffer, pH 7.4. After incubation times of 0, 3, 6, 9, 15 and 30 minutes at 37° C., 300 μL of cold ACN (including internal standard) was added to 100 μL incubation mixture to terminate the reaction. Following precipitation and centrifugation, 100 μL supernatant will be taken out and added 300 μL water. The amount of compound remaining in the samples was determined by LC-MS/MS. Controls of no NADPH regenerating system at zero and 30 minutes were also prepared and analyzed. The results were categorized as: low (<7.0 mL/min/kg), medium (7.0-16.2 mL/min/kg) and high (16.2-23.2 mL/min/kg).

CD73 [3] = target: T1, CD73; experiment: CD73 potency assay using LC/MS (enzymatic); format: biochemical; settings: 0.05 nM recombinant CD73 protein, LC/MS adenosine readout; read-out: Enzymatic IC50 against CD73
Description: The purpose of this assay is to identify and characterize inhibitors of CD73 enzymatic activity. […] 10 μL of enzyme working solution (containing 0.05 nM recombinant CD73 protein, 10 mM Tris pH 7.5, 100 mM NaCl, 0.01% BSA, 0.2 mM Octyl glucoside) was added to the assay plate and incubated with compounds for 15 minutes at room temperature. After adding 15 μL of AMP working solution (Containing 10 mM Tris pH 7.5, 100 mM NaCl, 0.01% BSA, 0.2 mM Octyl glucoside, with 1000 μM of AMP final concentration) and incubate for 10 min at room temperature. […] After centrifugation, 75 μL of the mixture was transferred to a new 384-well plate for LC/MS analysis.
Samples from the 384-well plates, were loaded onto an autosampler deck, then injected with ADDA-LC-MS/MS. The aqueous mobile phase is 0.1% formic acid in water. The organic mobile phase is 0.1% formic acid in acetonitrile. Flow rate is maintained at 0.8 mL/minute using Shimadzu pumps. The column is ACE 5 Phenyl, 50×2.1 mm. The analysis was performed on a SCIEX triple quadrupole mass spectrometer operating in positive ion mode. The effluent from the HPLC column was directly introduced into the electrospray ionization (ESI). Multiple reaction monitoring (MRM) is used to determine analyte and internal standard (IS) responses. […] The data is calculated using the peak area ratio (PAR) semi-quantitative method.
Target sequence in this assay (P21589 27-574, species assumed): as the sequence (P21589 27-574) above

CD8+ T cells = experiment: T cell proliferation assay, CD8+ T cells; settings: read-out: CD8+ T cell proliferation EC50; rescue of proliferation under high AMP condition (200 μM AMP), 72 hours
Description: (§1) The purpose of this assay is to characterize the potency of inhibitors of CD73 in rescuing adenosine-mediated inhibition of T cell proliferation. CD4+ or CD8+ T cells were isolated from peripheral blood mononuclear cells (PBMCs, HemaCare) by immunomagnetic negative selection using EasySep™ Isolation Kit ([sequence] Technologies) following the supplier's protocol. CD4+ or CD8+ T cells were pelleted by centrifugation at 300 gravitational force (g) for 5 minutes at room temperature and re-suspended in PBS. CellTrace™ Violet staining solution (Invitrogen) was added at 1:5,000 and incubated at 37° C. for 20 minutes, protected from light. […] Cells were then pelleted by centrifugation at 300 g for 5 minutes at room temperature and re-suspended in fresh, pre-warmed complete culture medium. 50 μL of cells were seeded per well in 96 well u-bottom plates. 50 μL of CD3/CD28 beads-containing medium and 50 μL of media containing compounds were added into cells. 50 μL of media containing AMP and EHNA hydrochloride (Sigma-Aldrich) was added into cells at 200 μM and 5 μM final concentration, respectively. Cells were incubated for 72 hours at 37° C. in a 5% CO2 incubator. 200 μL of PBS was then added to each well and cells were centrifuged at 300 g, 4° C. for 10 minutes. […] The supernatant was discarded and cells were re-suspended in 60 μL of cell staining buffer and analyzed on a flow cytometer.

CD4+ T cells = experiment: T cell proliferation assay, CD4+ T cells; settings: read-out: CD4+ T cell proliferation EC50; rescue of proliferation under high AMP condition (200 μM AMP), 72 hours
Description: as §1

In the case of `Cn1nc(O[C@H](c2ccccn2)C(F)(F)F)c2cc(-c3c[nH]c(=O)[nH]c3=O)nnc21` [Example 29A, 5-[1-methyl-3-[(1R)-2,2,2-trifluoro-1-(2-pyridyl)ethoxy]pyrazolo[3,4-c]pyridazin-5-yl]-1H-pyrimidine-2,4-dione], the IC50 (CD73 [1]) is reported as 3.4 nM, the “CL (h)” value [2] is reported as 6.15 mL/min/kg and the IC50 (CD73 [3]) is reported as 0.38 nM.
In the case of `C[C@H](Oc1nn(C)c2nnc(-c3c[nH]c(=O)[nH]c3=O)cc12)c1ccccn1` [Example 26, 5-[1-methyl-3-[(1S)-1-(2-pyridyl)ethoxy]pyrazolo[3,4-c]pyridazin-5-yl]-1H-pyrimidine-2,4-dione], the EC50 (CD8+ T cells) is reported as 3.9 nM, the IC50 (CD73 [1]) is reported as 2.7 nM and the “CL (h)” value [2] is reported as 6.15 mL/min/kg. The IC50 (CD73 [3]) was 0.33 nM and the EC50 (CD4+ T cells) was 5.6 nM.
With `Cn1nc(O[C@H](c2ccccc2)C(F)(F)F)c2cc(-c3c[nH]c(=O)[nH]c3=O)nnc21` [Example 30A, 5-[1-methyl-3-[(1R)-2,2,2-trifluoro-1-phenyl-ethoxy]pyrazolo[3,4-c]pyridazin-5-yl]-1H-pyrimidine-2,4-dione] the IC50 (CD73 [1]) was 1.6 nM, the “CL (h)” value [2] was 6.15 mL/min/kg and the IC50 (CD73 [3]) was 0.15 nM.
With `CN(c1nn(C)c2nnc(-c3c[nH]c(=O)[nH]c3=O)cc12)C1CCCC1` [Example 36, 5-[3-[cyclopentyl(methyl)amino]-1-methyl-pyrazolo[3,4-c]pyridazin-5-yl]-1H-pyrimidine-2,4-dione] the IC50 (CD73 [1]) was 8.6 nM, the “CL (h)” value [2] was 6.15 mL/min/kg and the IC50 (CD73 [3]) was 2.23 nM.
Work on `CC(C)Oc1nn(C)c2nnc(-c3c[nH]c(=O)[nH]c3=O)cc12` [Example 8, 5-(3-isopropoxy-1-methyl-pyrazolo[3,4-c]pyridazin-5-yl)-1H-pyrimidine-2,4-dione] yielded an IC50 (CD73 [1]) of 13.3 nM and an IC50 (CD73 [3]) of 3.88 nM.
With `Cc1cnc(C(C)Oc2nn(C)c3nnc(-c4c[nH]c(=O)[nH]c4=O)cc23)s1` (centres unmarked) [Example 22, 5-[1-methyl-3-[1-(5-methylthiazol-2-yl)ethoxy]pyrazolo[3,4-c]pyridazin-5-yl]-1H-pyrimidine-2,4-dione] the IC50 (CD73 [1]) was 3.9 nM and the “CL (h)” value [2] was 8.14 mL/min/kg.
With `Cn1nc(C2CC2)c2cc(-c3c[nH]c(=O)[nH]c3=O)nnc21` [Example 2, 5-(3-cyclopropyl-1-methyl-pyrazolo[3,4-c]pyridazin-5-yl)-1H-pyrimidine-2,4-dione] the IC50 (CD73 [1]) was 10.2 nM, the “CL (h)” value [2] was 8.52 mL/min/kg and the IC50 (CD73 [3]) was 0.89 nM.
In the case of `C[C@H](Oc1nn(C)c2nnc(-c3c[nH]c(=O)[nH]c3=O)cc12)c1ccccc1` [Example 27, 5-[1-methyl-3-[(1S)-1-phenylethoxy]pyrazolo[3,4-c]pyridazin-5-yl]-1H-pyrimidine-2,4-dione], the EC50 (CD8+ T cells) is reported as 3.84 nM, the “CL (h)” value [2] is reported as 6.15 mL/min/kg and the EC50 (CD4+ T cells) is reported as 4.3 nM.
In the case of `Cn1nc(C2CCC2)c2cc(-c3c[nH]c(=O)[nH]c3=O)nnc21` [Example 39, 5-(3-cyclobutyl-1-methyl-pyrazolo[3,4-c]pyridazin-5-yl)-1H-pyrimidine-2,4-dione], the IC50 (CD73 [1]) is reported as 3.5 nM, the “CL (h)” value [2] is reported as 6.15 mL/min/kg and the IC50 (CD73 [3]) is reported as 0.7 nM.
With `CC(Oc1nn(C)c2nnc(-c3c[nH]c(=O)[nH]c3=O)cc12)c1ccc(C#N)cc1` (centres unmarked) [Example 12, 4-[1-[5-(2,4-dioxo-1H-pyrimidin-5-yl)-1-methyl-pyrazolo[3,4-c]pyridazin-3-yl]oxyethyl]benzonitrile] the IC50 (CD73 [1]) was 3.4 nM and the “CL (h)” value [2] was 6.15 mL/min/kg.
With `Cn1nc(-c2ccnn2Cc2ccccc2)c2cc(-c3c[nH]c(=O)[nH]c3=O)nnc21` [Example 7, 5-[3-(2-benzylpyrazol-3-yl)-1-methyl-pyrazolo[3,4-c]pyridazin-5-yl]-1H-pyrimidine-2,4-dione] the IC50 (CD73 [1]) was 11.4 nM, the “CL (h)” value [2] was 9.85 mL/min/kg and the IC50 (CD73 [3]) was 1.94 nM.
With `Cn1nc(C2(c3ccccc3)CC2)c2cc(-c3c[nH]c(=O)[nH]c3=O)nnc21` [Example 6, 5-[1-methyl-3-(1-phenylcyclopropyl)pyrazolo[3,4-c]pyridazin-5-yl]-1H-pyrimidine-2,4-dione] the IC50 (CD73 [1]) was 12.9 nM and the “CL (h)” value [2] was 6.15 mL/min/kg.
In the case of `C[C@H](Oc1nn(C)c2nnc(-c3c[nH]c(=O)[nH]c3=O)cc12)c1ccc(F)cn1` [Example 43, 5-[3-[(1S)-1-(5-fluoro-2-pyridyl)ethoxy]-1-methyl-pyrazolo[3,4-c]pyridazin-5-yl]-1H-pyrimidine-2,4-dione], the IC50 (CD73 [1]) is reported as 3.7 nM and the “CL (h)” value [2] is reported as 6.15 mL/min/kg.
In the case of `CC(Oc1nn(C)c2nnc(-c3c[nH]c(=O)[nH]c3=O)cc12)c1ccc(F)cc1` (centres unmarked) [Example 16, 5-[3-[1-(4-fluorophenyl)ethoxy]-1-methyl-pyrazolo[3,4-c]pyridazin-5-yl]-1H-pyrimidine-2,4-dione], the IC50 (CD73 [1]) is reported as 3.5 nM and the “CL (h)” value [2] is reported as 6.15 mL/min/kg.
With `Cc1nc(C(C)Oc2nn(C)c3nnc(-c4c[nH]c(=O)[nH]c4=O)cc23)cs1` (centres unmarked) [Example 21, 5-[1-methyl-3-[1-(2-methylthiazol-4-yl)ethoxy]pyrazolo[3,4-c]pyridazin-5-yl]-1H-pyrimidine-2,4-dione] the IC50 (CD73 [1]) was 4.6 nM, the “CL (h)” value [2] was 6.32 mL/min/kg and the IC50 (CD73 [3]) was 0.65 nM.
For `C[C@@H](c1ccccc1)N(C)c1nn(C)c2nnc(-c3c[nH]c(=O)[nH]c3=O)cc12` [Example 38, 5-[1-methyl-3-[methyl-[(1S)-1-phenylethyl]amino]pyrazolo[3,4-c]pyridazin-5-yl]-1H-pyrimidine-2,4-dione], the IC50 (CD73 [1]) was 1.6 nM, the “CL (h)” value [2] was 9.3 mL/min/kg and the IC50 (CD73 [3]) was 0.25 nM.
In the case of `C[C@H](Oc1nn(C)c2nnc(-c3c[nH]c(=O)[nH]c3=O)cc12)c1ccc(Cl)nn1` [Example 45, 5-[3-[(1S)-1-(6-chloropyridazin-3-yl)ethoxy]-1-methyl-pyrazolo[3,4-c]pyridazin-5-yl]-1H-pyrimidine-2,4-dione], the IC50 (CD73 [1]) is reported as 9.9 nM and the “CL (h)” value [2] is reported as 6.15 mL/min/kg.
In the case of `CC(Oc1nn(C)c2nnc(-c3c[nH]c(=O)[nH]c3=O)cc12)c1cccc(C#N)c1` (centres unmarked) [Example 11, 3-[1-[5-(2,4-dioxo-1H-pyrimidin-5-yl)-1-methyl-pyrazolo[3,4-c]pyridazin-3-yl]oxyethyl]benzonitrile], the IC50 (CD73 [1]) is reported as 2.9 nM and the “CL (h)” value [2] is reported as 6.15 mL/min/kg.
With `CC(Oc1nn(C)c2nnc(-c3c[nH]c(=O)[nH]c3=O)cc12)c1cccc(Cl)c1` (centres unmarked) [Example 14, 5-[3-[1-(3-chlorophenyl)ethoxy]-1-methyl-pyrazolo[3,4-c]pyridazin-5-yl]-1H-pyrimidine-2,4-dione] the IC50 (CD73 [1]) was 4 nM and the “CL (h)” value [2] was 7.01 mL/min/kg.
For `Cn1nnc2nnc(-c3c[nH]c(=O)[nH]c3=O)cc21` [Example 4, 5-(1-methyltriazolo[4,5-c]pyridazin-6-yl)-1H-pyrimidine-2,4-dione], the IC50 (CD73 [1]) was 159 nM and the “CL (h)” value [2] was 6.15 mL/min/kg.
`O=c1[nH]cc(-c2cc3c(C4CCC4)noc3nn2)c(=O)[nH]1` [Example 46, 5-(3-cyclobutylisoxazolo[5,4-c]pyridazin-5-yl)-1H-pyrimidine-2,4-dione] gave an IC50 (CD73 [1]) of 10.4 nM and an IC50 (CD73 [3]) of 2 nM.
With `CC(Oc1nn(C)c2nnc(-c3c[nH]c(=O)[nH]c3=O)cc12)c1cccc(C(F)(F)F)c1` (centres unmarked) [Example 20, 5-[1-methyl-3-[1-[3-(trifluoromethyl)phenyl]ethoxy]pyrazolo[3,4-c]pyridazin-5-yl]-1H-pyrimidine-2,4-dione] the IC50 (CD73 [1]) was 6.9 nM and the “CL (h)” value [2] was 6.36 mL/min/kg.
